Experiment [1] concerns HeLa cells stably transfected with human ABCA1 cDNA (ABCA1 cells). Put plainly: Cholesterol and phospholipid efflux from ABCA1-transfected HeLa cells (incl. time course). The class given is cell-based. The procedure:
(§1) HeLa cells stably transfected with human ABCA1 cDNA (ABCA1 cells) and HeLa cells transfected with only a hygromycin-resistant control plasmid (control cells) are produced and grown in α-modified Eagle's medium (aMEM) plus 10% fetal calf serum, as described by Remaley et al. (Biochem. Biophys. Res. Commun. 280:818-823, 2001). Cholesterol and phospholipid efflux is performed for 18 hours on noncholesterol-loaded cells radiolabeled with either cholesterol or choline (Remaley et al., Arterioscler. Thromb. Vasc. Biol. 17:1813-1821, 1997). Percentage efflux is calculated after subtracting the radioactive counts in the blank media (aMEM plus 1 mg/ml of BSA), and expressed as the percent of total radioactive counts removed from the cells during the efflux period.
(§2) ABCA1 cells are used to assess the ability of apoA-I and synthetic peptides to efflux lipid from cells. […] The peptides of the present invention efflux approximately 2- to 4-fold more cholesterol and phospholipid from ABCA1 cells than from control cells. Both the peptides of the present invention and apoA-I began to show saturation for lipid efflux at approximately the same protein concentration of 10 μg/ml.
Cholesterol efflux from ABCA1 cells to apoA-I is first detectable after 2 hours and increases throughout the 30 hour efflux period. […]

Experiment [2] relates to J774 mouse macrophage cells (ABCA1). Put plainly: ABCA1 mediated cholesterol efflux. The experiment is classed as cell-based. To be noted: samples minus blank, Apo A-I @ 20 μg/ml. An excerpt: (§3) The methods employed in this study have been described in U.S. Pat. Nos. 7,029,863, 7,060,452, U.S. Patent Application Publication No. 2005/0191715, and in Moya et al., Arteriosclerosis & Thrombosis 1994:14:1056-1065 and Liu et al., J. Biol. Chem., 2003:278(44), 42976-42984. SR-B1 mediated cholesterol efflux is examined in FU5AH rat hepatoma cells and ABCA1 mediated cholesterol efflux is examined in J774 mouse macrophage cells as described in these references.

The subject of the next experiment is CD11b. Nature of the experiment: CD11b expression in stimulated monocytes by flow cytometry. To be noted: human monocytes, 1 μmol/L PMA, 20 μg/ml apoA-1 or peptide. The class given is cell-based. The procedure:
Monocyte Isolation Peripheral whole blood (PWB) is drawn from healthy consenting individuals into syringes containing sodium citrate (final concentration—19.2 mM). Resting human monocytes are isolated from PWB by density centrifugation with Lymphoprep (Axis Shield). Mononuclear cells (MNCs) are collected and monocytes are further separated to purity using the Dynal negative isolation kit (Invitrogen). Monocytes are resuspended in phosphate buffered saline (PBS) and cell number is determined counting cell suspension on an automated hematology analyzer (Sysmex, KX-21N, USA). Purification of HDL and apoA-1 Human plasma apoA-1 is isolated as previously described and the purity determined using total mass spectrometry. Flow Cytometry 100 μL of monocytes are stimulated with either 1 μmol/L phorbol-myristate-acetate (PMA) or 1 μg/ml lipopolysaccharide (LPS) (Sigma, Australia) in the presence or absence of apoA-1 (20 μg/ml), or 20 μg/ml of the test peptides of the present invention. SEQ ID NOs: 72, 80, 89, 354, 355 and 372 are also tested individually. The cells are incubated with the FITC conjugated antibody to either the active epitope of CD11b (eBiosciences, USA, Clone CBRM1/5) or total CD11b (Serotec, USA, Clone ICRF44) for 15 min at 37° C. Cells are then fixed with 4% paraformaldehyde. Samples are controlled for by using the appropriately matched isotype matched negative control (FITC-anti-mouse IgG) (Serotec, USA, Clone W3/25). CD11b expression is measured by flow cytometry using FACS Calibur (Becton Dickinson). Analysis is conducted using the Cell Quest Pro software. Statistical Analysis Values are presented as the mean ±SD or percentage of control ±SD. FACS results are analyzed for statistical significance using one-way ANOVA followed by Bonferroni post-hoc test. Significance is accepted at P<0.05. […] The combined effects of increasing cholesterol efflux and decreasing inflammation indicate that the peptides of the present invention effectively mimic the function of Apo AI and will decrease atherosclerosis.

In experiment [3] the test system is HeLa cells transfected with only a hygromycin-resistant control plasmid (control cells). The note with it: as previously described (Hamon et al.; Remaley et al.); cited from earlier work.
For experiment [4], the system named is HeLa cells stably transfected with human ABCA1 cDNA (ABCA1 cells). The note with it: as previously described (Hamon et al.; Remaley et al.); cited from earlier work.
The subject of experiment [5] is FU5AH rat hepatoma cells (SR-B1). Nature of the experiment: SR-B1 mediated cholesterol efflux. The class given is cell-based. To be noted: samples minus blank; Apo A-I @ 20 μg/ml.
Source text: as §3

Experiment [6] has as its system HeLa cells transfected with only a hygromycin-resistant control plasmid (control cells). Put plainly: Cholesterol and phospholipid efflux from control HeLa cells (incl. time course). The experiment is classed as cell-based, human. To be noted: 30 hour efflux period. The procedure: as §1, §2
Cholesterol efflux from ABCA1 cells to apoA-I is first detectable after 2 hours and increases throughout the 30 hour efflux period. […] Overall, the kinetics for cholesterol efflux to peptides of the present invention from ABCA1 cells is similar to that of apoA-I, except that cholesterol efflux is first detectable after 30 minutes.

For the substance “apolipoprotein A-I [Apo A-I, reference compound]”, the “protein concentration at which lipid efflux begins to show saturation” value in experiment [1] is around 10 µg/mL. For the same substance, the “time after which cholesterol efflux from ABCA1 cells is first detectable” value in experiment [1] (30 hour efflux period) was 2 h. In addition, in experiment [2], the “+ABCA1 Cells (efflux)” value is 20.682 + 0.724 and the “−ABCA1 Cells (efflux)” value is reported as 1.713 ± 0.409. Further, the “ABCA1 Mediated Efflux” value in experiment [2] (equals +ABCA1 minus −ABCA1 cells) turned out to be 18.97 % Per 4 h. In the experiment with CD11b, the “PMA induced CD11b expression” value is on record as “significantly reduce”. Besides, the “efflux of cholesterol and phospholipid to apoA-I from control cells” value in experiment [3] is “do not efflux significant amounts”. In addition, the “efflux of cholesterol and phospholipid to apoA-I after transfection with ABCA1” value in experiment [4] is recorded as “do so after transfection with ABCA1”. The “SR-BI Mediated Efflux” value in experiment [5] was determined as 0.26 % Per 4 h. Moreover, in experiment [6], the “cholesterol efflux to apoA-I from control cells, time course” value is on record as “no significant increase above background”.
